The subject of one assay is H3K9AC (HT1080 cells). Put plainly: H3K9AC Sandwich ELISA Assay in HT1080 cells (KAT2A primary cell-based screening assay). On the set-up: species or system Human. On the procedure: Human fibrosarcoma cell line HT1080 was obtained from American Type Culture Collection (ATCC), Manassas, VA USA, Cat. HT-1080 (ATCC® CCL-121™). Cells were cultured in MEM (Thermo Fisher Scientific/Gibco Life Technologies Cat. #11-095-080) plus 10% (v/v) FBS (Thermo Fisher Scientific/Gibco Life Technologies Cat. #26140-079) and 1% Penicillin-Streptomycin (Thermo Fisher Scientific/Gibco Life Technologies Cat. #15070063) at 37° C. in 5% CO2.
HT1080 cells were trypsinized, cell viability count performed, and cells suspended in complete media at 100,000 cells/ml. Cells were seeded (100 μl/well) into Greiner Bio-One CELLSTAR 96-well polystyrene flat bottom cell culture microplate (Thermo Fisher Scientific Cat. #07-000-162) at a density of 10,000 cells/well. Cells were incubated for 16 hours at 37° C. at 5% CO2. Compound dilution plates were prepared in 96-well, clear U-bottom, polypropylene plates (Corning 3365) in 100% DMSO at 10 mM stock concentration in duplicate, using 10-point serial dilution (1:3). Compounds were diluted to 1:200 in growth medium and 25 μl from intermediate compound plates were added to each well of the cell plates using a Beckman FX liquid handling system such that the highest compound concentration tested was 10 μM final, with a 0.1% final DMSO concentration in the total volume of 125 μl. Plates were incubated for 24 hours at 37° C. and 5% CO2. Plates were centrifuged at 2500 rpm for 5 minutes and medium was removed. 100 μL 0.4N HCL (Thermo Fisher Scientific Cat #SA56-1) was added to each well and plates were shaken for 60 minutes at 4C to lyse cells. 38ul 0.4N Sodium phosphase dibasic pH12.5 (Thermo Fisher Scientific Cat #S375-212) containing 2 mM Sodium Butyrate (Millipore TR1008G) and 3 mM Phenylmethanesulfonyl-fluoride (Sigma 93482) was added to each well to neutralize lysates.
Cell lysate plates were mixed for 5 minutes at room temperature on shaker and immediately frozen at −80C overnight. Cell lysates were thawed and 50 μL/well was transferred to ELISA plates (Total Histone H3 mouse (Cell Signaling Technology Cat #14269) mAb-coated Corning 1×8 strip-well, white, 96-well plates (Corning 2485)). After 2 hours room temperature incubation, plates were washed six times with PBS/0.05% Tween Wash Buffer using a BioTek plate washer. 50 μL of Histone H3K9AC rabbit detection mAb (Cell Signaling Technology Cat #9649S) diluted 1:1000 in blocking buffer (Thermo Fisher Scientific Cat #37542) was added to each well and incubated for 2 hours at room temperature. After washing, 50 μL anti-rabbit IgG, HRP-Linked antibody (Cell Signaling Technology Cat #7074) diluted 1:1000 in blocking buffer was added to each well and incubated for 60 minutes at room temperature. Following incubation, plates were washed as described above. 50 μL of luminescent GLO substrate reagent (R&D System Cat #DY993) was added to each well and incubated for 10 minutes at room temperature. Plates were read on the PHERAstar plate reader using the 96-well with Luminescent reading mode. IC50 values were calculated using a four-parameter fit with GraphPad Prism version 9.5.1 or in-house modified IDBS ActivityBase data analyzing package.

A further assay addresses KAT2A (Homo sapiens (Human), UniProt Q92830). The assay is described as follows: KAT2A acetyltransferase biochemical assay (RapidFire mass spectrometry, AcCoA to CoA). The settings on record: read-out: KAT2A Ki at 1 μM AcCoA, 5 μM H3 1-21 peptide, 0.5 nM KAT2A, 90-minute reaction.
The mark [1] stands for this setting: Homo sapiens, HT-1080, H3K9AC sandwich ELISA.

Chain of KAT2A (Q92830 whole entry): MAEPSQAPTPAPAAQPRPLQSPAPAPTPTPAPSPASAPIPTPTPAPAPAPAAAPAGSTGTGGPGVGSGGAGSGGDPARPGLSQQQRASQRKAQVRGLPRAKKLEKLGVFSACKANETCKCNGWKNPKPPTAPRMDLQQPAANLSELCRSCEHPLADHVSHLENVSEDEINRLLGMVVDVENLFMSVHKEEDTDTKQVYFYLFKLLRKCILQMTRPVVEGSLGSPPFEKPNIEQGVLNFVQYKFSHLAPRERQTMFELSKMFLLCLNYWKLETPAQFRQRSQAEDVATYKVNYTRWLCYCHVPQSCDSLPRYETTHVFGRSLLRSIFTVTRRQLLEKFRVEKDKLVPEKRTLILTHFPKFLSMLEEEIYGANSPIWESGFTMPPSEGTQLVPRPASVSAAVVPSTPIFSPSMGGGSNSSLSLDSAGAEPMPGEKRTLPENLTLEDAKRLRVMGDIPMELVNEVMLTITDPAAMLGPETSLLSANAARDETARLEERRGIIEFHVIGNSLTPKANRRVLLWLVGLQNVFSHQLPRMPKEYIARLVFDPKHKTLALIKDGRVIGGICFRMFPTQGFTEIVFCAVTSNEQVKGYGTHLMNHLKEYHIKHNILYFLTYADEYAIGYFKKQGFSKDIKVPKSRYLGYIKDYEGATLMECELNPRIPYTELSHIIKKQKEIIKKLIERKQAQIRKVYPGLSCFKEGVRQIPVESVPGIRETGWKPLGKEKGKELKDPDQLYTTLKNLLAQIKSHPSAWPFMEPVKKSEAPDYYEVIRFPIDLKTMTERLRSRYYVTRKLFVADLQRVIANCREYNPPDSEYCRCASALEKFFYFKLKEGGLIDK

By IC50 is commonly meant the concentration that gives 50% inhibition. Lower therefore signals greater potency. Turning to `CN1CC(C)(C)C[C@H]1C(=O)N[C@@H]1CC[C@@H](Oc2cccc(CC(=O)O)c2-c2ccccc2C2CCC2)C1` (atropisomer, axis not shown) [Example H7], in the assay on H3K9AC (HT1080 cells) (H3K9AC sandwich ELISA), the concentration for half-maximal inhibition (IC50) was 340 nM.
For orientation: Ki means the equilibrium dissociation constant of an inhibitor or competing ligand from its target. `CC1(C)CNC[C@](F)(C(=O)N[C@@H]2CC[C@@H](Oc3cccc(CC(=O)O)c3-c3cccc(F)c3C3CCC3)C2)C1` (atropisomer, axis not shown) [Example H12, [(1 ψ)-2′-cyclobutyl-3′-fluoro-6-{[(1R,3R)-3-{[(3ξ)-3-fluoro-5,5-dimethylpiperidine-3-carbonyl]amino}cyclopentyl]oxy}[1,1′-biphenyl]-2-yl]acetic acid] came in with an IC50 with H3K9AC (HT1080 cells) (H3K9AC sandwich ELISA) greater than 1000 nM. Besides, the inhibition constant Ki at KAT2A was greater than 99.9 nM.
In the assay with H3K9AC (HT1080 cells) (H3K9AC sandwich ELISA), `CC1(C)CNC[C@](F)(C(=O)N[C@@H]2CC[C@@H](Oc3cccc(CC(=O)O)c3-c3cccc(F)c3C3CCC3)C2)C1` (atropisomer, axis not shown) [Example H13, [(1 ψ)-2′-cyclobutyl-3′-fluoro-6-{[(1R,3R)-3-{[(3ξ)-3-fluoro-5,5-dimethylpiperidine-3-carbonyl]amino}cyclopentyl]oxy}[1,1′-biphenyl]-2-yl]acetic acid] returned an IC50 of 9.7 nM.
As to `CN1CC(C)(C)C[C@H]1C(=O)N[C@@H]1CC[C@@H](Oc2cccc(C(=O)NS(C)(=O)=O)c2-c2cccc(F)c2C2CCC2)C1` (atropisomer, axis not shown) [Example I1, N-[(1R,3R)-3-({(1Ψ)-2′-cyclobutyl-3′-fluoro-6-[(methanesulfonyl)carbamoyl][1,1′-biphenyl]-2-yl}oxy)cyclopentyl]-1,4,4-trimethyl-L-prolinamide], the IC50 with H3K9AC (HT1080 cells) (setting [1]) amounted to 41.9 nM. Moreover, the Ki at KAT2A stood at 24.5 nM.
The compound `CN1CC(C)(C)C[C@H]1C(=O)N[C@@H]1CC[C@@H](Oc2cccc(CC(=O)NS(C)(=O)=O)c2-c2ccccc2C2CCC2)C1` (atropisomer, axis not shown) [Example I3, N-[(1R,3R)-3-{[(1ψ)-2′-cyclobutyl-6-{2-[(methanesulfonyl)amino]-2-oxoethyl}[1,1′-biphenyl]-2-yl]oxy}cyclopentyl]-1,4,4-trimethyl-L-prolinamide] yielded an IC50 with H3K9AC (HT1080 cells) (H3K9AC sandwich ELISA) greater than 6680 nM. Further, at KAT2A, the Ki is 1430 nM.
As for `CN1CC(C)(C)C[C@H]1C(=O)N[C@@H]1CC[C@@H](Oc2cccc(C(=O)NS(=O)(=O)N(C)C)c2-c2cccc(F)c2C2CCC2)C1` (atropisomer, axis not shown) [Example I7, N-[(1R,3R)-3-({(1ψ)-2′-cyclobutyl-6-[(dimethylsulfamoyl)carbamoyl]-3′-fluoro[1,1′-biphenyl]-2-yl}oxy)cyclopentyl]-1,4,4-trimethyl-L-prolinamide], the IC50 with H3K9AC (HT1080 cells) (setting [1]) was 41.4 nM. Moreover, the Ki on KAT2A stood at 24.4 nM.
`CN1CC2(CCCC2)C[C@@H]1C(=O)N[C@@H]1CC[C@@H](Oc2cccc(C(=O)NS(C)(=O)=O)c2-c2cccc(F)c2C2CCC2)C1` (atropisomer, axis not shown) [Example I11, (3ξ)-N-[(1R,3R)-3-({(1ψ)-2′-cyclobutyl-3′-fluoro-6-[(methanesulfonyl)carbamoyl][1,1′-biphenyl]-2-yl}oxy)cyclopentyl]-2-methyl-2-azaspiro[4.4]nonane-3-carboxamide] displayed an IC50 in the assay with H3K9AC (HT1080 cells) (setting [1]) of 3130 nM. Further, the Ki at KAT2A is 163 nM.
Turning to `CN(C)S(=O)(=O)NC(=O)Cc1cccc(O[C@@H]2CC[C@@H](NC(=O)[C@@]3(F)CNC4(CCC4)C3)C2)c1-c1cccc(F)c1C1CCC1` (atropisomer, axis not shown) [Example I15, (7S)-N-[(1R,3R)-3-({(1ψ)-2′-cyclobutyl-6-[2-(dimethylsulfamamido)-2-oxoethyl]-3′-fluoro[1,1′-biphenyl]-2-yl}oxy)cyclopentyl]-7-fluoro-5-azaspiro[3.4]octane-7-carboxamide], the IC50 with H3K9AC (HT1080 cells) (H3K9AC sandwich ELISA) is greater than 1000 nM. For the same compound, the Ki on KAT2A is greater than 99.9 nM.
Regarding `CC(C)S(=O)(=O)NC(=O)Cc1cccc(O[C@@H]2CC[C@@H](NC(=O)[C@@]3(F)CNC4(CCC4)C3)C2)c1-c1cccc(F)c1C1CCC1` (atropisomer, axis not shown) [Example I18, (7S)-N-[(1R,3R)-3-({(1ψ)-2′-cyclobutyl-3′-fluoro-6-[2-oxo-2-(propane-2-sulfonamido)ethyl][1,1′-biphenyl]-2-yl}oxy)cyclopentyl]-7-fluoro-5-azaspiro[3.4]octane-7-carboxamide], the IC50 with H3K9AC (HT1080 cells) (H3K9AC sandwich ELISA) was greater than 1000 nM. For the same compound, at KAT2A, the Ki was greater than 99.9 nM.
For `CC(C)S(=O)(=O)NC(=O)c1cccc(O[C@@H]2CC[C@@H](NC(=O)[C@@]3(F)CNC4(CCC4)C3)C2)c1-c1cccc(F)c1C1CCC1` (atropisomer, axis not shown) [Example I19, (7S)-N-[(1R,3R)-3-({(1ψ)-2′-cyclobutyl-3′-fluoro-6-[(propane-2-sulfonyl)carbamoyl][1,1′-biphenyl]-2-yl}oxy)cyclopentyl]-7-fluoro-5-azaspiro[3.4]octane-7-carboxamide], inhibition in the assay on H3K9AC (HT1080 cells) (setting [1]) was half-maximal at 7.1 nM (IC50). Moreover, the Ki at KAT2A was 13.7 nM.
On to `CN1CC(C)(C)C[C@H]1C(=O)N[C@H]1C[C@H](Oc2cccc(CC(=O)O)c2-c2cccc(F)c2C2CCC2)C[C@H]1O` (atropisomer, axis not shown) [Example K5, [(1ψ)-2′-cyclobutyl-3′-fluoro-6-({(1S,3R,4S)-3-hydroxy-4-[(1,4,4-trimethyl-L-prolyl)amino]cyclopentyl}oxy)[1,1′-biphenyl]-2-yl]acetic acid], for which 489 nM corresponded to half-maximal inhibition in the assay on H3K9AC (HT1080 cells) (H3K9AC sandwich ELISA) (IC50). In addition, the Ki at KAT2A came out at 75.7 nM.
As to `CN1CC(C)(C)C[C@H]1C(=O)N[C@H]1C[C@H](Oc2cccc(CC(=O)O)c2-c2cccc(F)c2C2CCC2)C[C@H]1O` (atropisomer, axis not shown) [Example K6, [(1ψ)-2′-cyclobutyl-3′-fluoro-6-({(1S,3R,4S)-3-hydroxy-4-[(1,4,4-trimethyl-L-prolyl)amino]cyclopentyl}oxy)[1,1′-biphenyl]-2-yl]acetic acid], in the assay with H3K9AC (HT1080 cells) (H3K9AC sandwich ELISA), half-maximal inhibition (IC50) required 5.73 nM. Besides, the Ki at KAT2A came to 1.13 nM.
Turning to `CC1(C)C[C@@](F)(C(=O)N[C@@H]2CC[C@@H](Oc3ccc(C(C)(C)C(=O)O)cc3-c3cccc(F)c3C3CCC3)C2)CN1` (single isomer, unassigned) [Example A3], the IC50 in the assay on H3K9AC (HT1080 cells) (setting [1]) was greater than 10000 nM. The Ki on KAT2A was 1440 nM.
Consider `CC[C@](C)(C(=O)O)c1ccc(O[C@@H]2CC[C@@H](NC(=O)[C@]3(F)CNC4(CCC4)C3)C2)c(-c2cccc(F)c2C2CCC2)c1` (single isomer, unassigned) [Example A10], for which, in the assay with H3K9AC (HT1080 cells) (H3K9AC sandwich ELISA), the 50% inhibitory concentration (IC50) is greater than 1000 nM. Further, the Ki on KAT2A was greater than 1000 nM.
`CC[C@](C)(C(=O)O)c1ccc(O[C@@H]2CC[C@@H](NC(=O)[C@]3(F)CNC4(CCC4)C3)C2)c(-c2cccc(F)c2C2CCC2)c1` (single isomer, unassigned) [Example A11] showed an IC50 in the assay on H3K9AC (HT1080 cells) (H3K9AC sandwich ELISA) greater than 1000 nM. On KAT2A, the Ki is greater than 1000 nM.
Compound `CC1(C)C[C@@](F)(C(=O)N[C@@H]2CC[C@@H](Oc3ccc(C(=O)O)cc3-c3cccc(F)c3C3CCC3)C2)CN1` (single isomer, unassigned) [Example A13] came in with an IC50 in the assay on H3K9AC (HT1080 cells) (H3K9AC sandwich ELISA) greater than 1000 nM. In addition, the Ki on KAT2A was found to be 96 nM.
Compound `CC1(C)CNC[C@](F)(C(=O)N[C@@H]2CC[C@@H](Oc3ccc(C(C)(C)C(=O)O)cc3-c3cccc(F)c3C3CCC3)C2)C1` (single isomer, unassigned) [Example A15] registered an IC50 with H3K9AC (HT1080 cells) (H3K9AC sandwich ELISA) of 296 nM. Further, the Ki on KAT2A was greater than 1000 nM.
Turning to `CCC1(CC)C[C@@](F)(C(=O)N[C@@H]2CC[C@@H](Oc3ccc(C(C)(C)C(=O)O)cc3-c3cccc(F)c3C3CCC3)C2)CN1` (single isomer, unassigned) [Example A30], the 50% inhibitory concentration (IC50) in the assay on H3K9AC (HT1080 cells) (H3K9AC sandwich ELISA) is greater than 1000 nM.
`CCC1(CC)C[C@@](F)(C(=O)N[C@@H]2CC[C@@H](Oc3ccc(C(C)(C)C(=O)O)cc3-c3cccc(F)c3C3CCC3)C2)CN1` (single isomer, unassigned) [Example A31] showed an IC50 in the assay on H3K9AC (HT1080 cells) (H3K9AC sandwich ELISA) of 9.3 nM.

These data come from patent US20250188030A1, “Biphenyl and Phenylpyridine Compounds” (Pfizer Inc., priority 2023, published 2025).
